Source: patent US8415469B2, “Compounds and methods for kinase modulation, and indications therefor” (Plexxikon Inc., priority 2005, dated 2013)

Assays:
Assay type in all cases: biochemical
FGFR1 = biological target: T1, FGFR1 (Homo sapiens, UniProt P11362, C488A/C584S); experiment: AlphaScreen kinase assay, FGFR1; settings: read-out: IC50, activity toward kinase FGFR
T1 construct: P1351.pET N6 BI-PTP FGFR A458-E765-X C488A, C584S; made in house; host or cells: E. coli (PTP1B co-expressed)

Btk = biological target: T2, Btk (Homo sapiens, UniProt Q06187); experiment: Z'-Lyte FRET kinase assay (Invitrogen), Btk; settings: read-out: IC50, activity toward kinase Btk
T2 construct: purchased Invitrogen (assay run by Invitrogen)

Syk = Syk (Homo sapiens, UniProt P43405); experiment: AlphaScreen kinase assay, Syk; settings: read-out: IC50, activity toward kinase Syk
From the text: (§1) AlphaScreen assay was used to screen additional kinases. The assay is similarly dependent on the phosphorylation of a peptide substrate. In this assay, an antibody that recognizes phosphorylated substrate is bound to an acceptor bead. The peptide substrate is attached to biotin, which binds to a donor head that contains streptavidin. Thus phosphorylated substrate is bound by antibody and streptavidin, bringing the donor and acceptor heads into close proximity when kinase is not inhibited. The donor produces singlet oxygen which results in emission from the acceptor when they are in close proximity. Conversely, when kinase is inhibited, the donor and acceptor beads are not associated and the emission from the acceptor is reduced.
(§2) AlphaScreen assays were done using compounds dissolved in DMSO to a concentration of 20 mM. The compounds were diluted accordingly to the desired final concentrations in each sample well, using 1:3 serial dilution for a total of 8 concentration points.

Ret = biological target: T3, Ret (Homo sapiens, UniProt P07949); experiment: AlphaScreen kinase assay, Ret; settings: read-out: IC50, activity toward kinase Ret
T3 construct: P1378.pET-SF BI-PTP RET H661-R1012 HIS; made in house
T3 sequence (P07949 with tags, fused parts or gaps): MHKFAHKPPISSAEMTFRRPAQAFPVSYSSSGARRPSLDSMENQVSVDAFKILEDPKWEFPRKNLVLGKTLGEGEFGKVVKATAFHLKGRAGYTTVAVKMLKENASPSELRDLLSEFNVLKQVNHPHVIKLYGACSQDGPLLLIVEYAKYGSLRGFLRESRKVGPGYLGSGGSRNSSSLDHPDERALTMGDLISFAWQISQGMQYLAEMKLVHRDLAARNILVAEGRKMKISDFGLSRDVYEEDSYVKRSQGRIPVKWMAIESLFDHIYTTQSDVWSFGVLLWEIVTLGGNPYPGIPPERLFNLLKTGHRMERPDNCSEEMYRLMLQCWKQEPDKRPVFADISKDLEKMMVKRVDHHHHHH

B-Raf V600E = biological target: T4, B-Raf V600E (Homo sapiens, UniProt P15056, V600E); experiment: AlphaScreen kinase assay, B-Raf V600E; settings: read-out: IC50, activity toward kinase B-Raf V600E
T4 construct: P4254. pFastBacBD-CDC37 BRAF D437-K722-X, V600E; His6 with pFastBac HT leader (TEV site) (N); made in house; host or cells: Sf9 (baculovirus; chaperone CDC37 co-expressed)

Jnk3 = biological target: T5, Jnk3 (Homo sapiens, UniProt P53779); experiment: AlphaScreen kinase assay, Jnk3; settings: read-out: IC50, activity toward kinase Jnk3
T5 construct: purchased Upstate Biotechnology

Kdr = biological target: T6, Kdr (Homo sapiens, UniProt P35968); experiment: Z'-Lyte FRET kinase assay (Invitrogen), Kdr; settings: read-out: IC50, activity toward kinase Kdr
T6 construct: purchased Invitrogen (assay run by Invitrogen)

Frk = Frk (Homo sapiens, UniProt P42685); experiment: AlphaScreen kinase assay, Frk; settings: read-out: IC50, activity toward kinase Frk
From the text: as §1, §2

Brk = Brk (Homo sapiens, UniProt Q13882); experiment: AlphaScreen kinase assay, Brk; settings: read-out: IC50, activity toward kinase Brk
From the text: as §1, §2

Fms = biological target: T7, Fms (Homo sapiens, UniProt P07333); experiment: AlphaScreen kinase assay, Fms; settings: read-out: IC50, activity toward kinase Fms
T7 construct: purchased Upstate Biotechnology

Src = biological target: T8, Src (Homo sapiens, UniProt P12931); experiment: AlphaScreen kinase assay, Src; settings: read-out: IC50, activity toward kinase Src
T8 construct: P1144. pET-N6 BI-PTP SRC V86-L536-X; made in house

Kit = biological target: T9, Kit (Homo sapiens, UniProt P10721); experiment: AlphaScreen kinase assay, Kit; settings: read-out: IC50, activity toward kinase Kit
T9 construct: P1332.N6 BI PTP KIT M552-K948-X COD; His6 (N); made in house; host or cells: E. coli (PTP1B co-expressed)

c-Raf-1 = biological target: T10, c-Raf-1 (Homo sapiens, UniProt P04049); experiment: AlphaScreen kinase assay, c-Raf-1; settings: read-out: IC50, activity toward kinase c-Raf-1
T10 construct: purchased Upstate Biotechnology

Fak = biological target: T11, Fak (Homo sapiens, UniProt Q05397); experiment: AlphaScreen kinase assay, Fak; settings: read-out: IC50, activity toward kinase Fak
T11 construct: P1358.pFastBacHtb FAK S411-Q686-X; His6 with pFastBacHTb leader (TEV site) (N); made in house; host or cells: Sf9 (baculovirus)

Csk = Csk (Homo sapiens, UniProt P41240); experiment: AlphaScreen kinase assay, Csk; settings: read-out: IC50, activity toward kinase Csk
From the text: as §1, §2

Stk6 = biological target: T12, Stk6 (Homo sapiens, UniProt O14965); experiment: Z'-Lyte FRET kinase assay (Invitrogen), Stk6; settings: read-out: IC50, activity toward kinase Stk6
T12 construct: purchased Invitrogen (Carlsbad, Calif.), screening service
T12 sequence (O14965 1-403): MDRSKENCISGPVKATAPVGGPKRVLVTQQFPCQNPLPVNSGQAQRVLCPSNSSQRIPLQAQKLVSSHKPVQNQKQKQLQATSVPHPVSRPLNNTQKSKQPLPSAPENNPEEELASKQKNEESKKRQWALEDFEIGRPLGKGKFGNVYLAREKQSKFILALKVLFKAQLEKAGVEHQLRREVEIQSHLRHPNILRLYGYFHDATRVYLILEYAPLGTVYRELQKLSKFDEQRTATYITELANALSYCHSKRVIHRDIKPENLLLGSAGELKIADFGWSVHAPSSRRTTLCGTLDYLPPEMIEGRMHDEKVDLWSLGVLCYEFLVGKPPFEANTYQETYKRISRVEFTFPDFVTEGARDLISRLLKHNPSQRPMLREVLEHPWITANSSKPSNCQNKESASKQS

B-Raf = biological target: T13, B-Raf (Homo sapiens, UniProt P15056); experiment: AlphaScreen kinase assay, B-Raf; settings: read-out: IC50, activity toward kinase B-Raf
T13 construct: purchased Upstate Biotechnology

Jnk1 = biological target: T14, Jnk1 (Homo sapiens, UniProt P45983); experiment: AlphaScreen kinase assay, Jnk1; settings: read-out: IC50, activity toward kinase Jnk1
T14 construct: purchased Upstate Biotechnology

TEC = biological target: T15, TEC (Homo sapiens, UniProt P42680); experiment: AlphaScreen kinase assay, TEC; settings: read-out: IC50, activity toward kinase TEC
T15 sequence (P42680 1-631): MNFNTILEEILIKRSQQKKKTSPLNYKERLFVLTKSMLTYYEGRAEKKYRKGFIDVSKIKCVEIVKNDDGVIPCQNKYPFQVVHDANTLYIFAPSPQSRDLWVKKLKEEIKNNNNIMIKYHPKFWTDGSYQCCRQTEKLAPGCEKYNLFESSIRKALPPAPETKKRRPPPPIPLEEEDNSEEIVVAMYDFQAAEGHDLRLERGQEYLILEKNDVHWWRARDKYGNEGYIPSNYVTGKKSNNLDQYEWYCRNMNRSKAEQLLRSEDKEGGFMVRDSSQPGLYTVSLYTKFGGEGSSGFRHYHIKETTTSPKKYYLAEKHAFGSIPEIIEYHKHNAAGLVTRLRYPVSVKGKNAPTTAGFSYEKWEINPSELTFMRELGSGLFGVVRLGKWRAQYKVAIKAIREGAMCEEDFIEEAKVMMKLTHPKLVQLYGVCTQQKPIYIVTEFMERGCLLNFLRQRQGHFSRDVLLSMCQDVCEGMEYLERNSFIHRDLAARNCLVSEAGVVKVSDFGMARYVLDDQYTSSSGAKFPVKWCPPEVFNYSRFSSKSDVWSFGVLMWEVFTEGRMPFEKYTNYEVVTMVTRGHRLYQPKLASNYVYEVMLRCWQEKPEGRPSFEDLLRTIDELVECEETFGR
From the text: as §1, §2

Measured: IC50

T9 sequence (P10721 with tags, fused parts or gaps): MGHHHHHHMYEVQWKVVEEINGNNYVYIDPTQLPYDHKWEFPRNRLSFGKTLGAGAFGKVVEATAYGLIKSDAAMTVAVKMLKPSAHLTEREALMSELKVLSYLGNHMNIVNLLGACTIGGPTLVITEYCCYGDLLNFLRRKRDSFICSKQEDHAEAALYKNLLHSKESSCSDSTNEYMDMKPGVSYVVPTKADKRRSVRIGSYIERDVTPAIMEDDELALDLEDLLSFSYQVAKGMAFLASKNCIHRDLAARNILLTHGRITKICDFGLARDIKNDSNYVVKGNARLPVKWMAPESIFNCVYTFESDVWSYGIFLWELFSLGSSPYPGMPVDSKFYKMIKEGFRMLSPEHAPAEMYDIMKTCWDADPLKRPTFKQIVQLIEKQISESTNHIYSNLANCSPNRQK
T13 sequence (P15056 whole entry): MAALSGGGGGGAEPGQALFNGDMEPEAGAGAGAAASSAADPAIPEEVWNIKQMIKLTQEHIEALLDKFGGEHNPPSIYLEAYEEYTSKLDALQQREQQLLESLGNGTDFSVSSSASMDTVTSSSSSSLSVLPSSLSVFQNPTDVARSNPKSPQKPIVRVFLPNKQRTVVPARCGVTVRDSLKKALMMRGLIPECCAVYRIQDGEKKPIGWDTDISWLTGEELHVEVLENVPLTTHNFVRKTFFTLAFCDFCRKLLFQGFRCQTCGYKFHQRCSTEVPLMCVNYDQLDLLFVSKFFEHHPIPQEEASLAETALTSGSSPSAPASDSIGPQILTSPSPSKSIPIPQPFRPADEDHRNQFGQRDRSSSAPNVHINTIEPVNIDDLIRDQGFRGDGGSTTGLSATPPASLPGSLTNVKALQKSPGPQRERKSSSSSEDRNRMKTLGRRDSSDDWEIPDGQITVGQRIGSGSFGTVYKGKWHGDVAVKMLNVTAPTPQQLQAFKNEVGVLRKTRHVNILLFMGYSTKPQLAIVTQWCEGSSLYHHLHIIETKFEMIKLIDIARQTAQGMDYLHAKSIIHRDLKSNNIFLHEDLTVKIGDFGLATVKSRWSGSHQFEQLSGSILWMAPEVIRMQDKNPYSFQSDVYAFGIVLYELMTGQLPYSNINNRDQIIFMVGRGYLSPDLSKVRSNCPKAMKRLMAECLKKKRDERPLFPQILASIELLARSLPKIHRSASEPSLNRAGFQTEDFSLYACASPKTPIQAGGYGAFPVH
T11 sequence (Q05397 411-686): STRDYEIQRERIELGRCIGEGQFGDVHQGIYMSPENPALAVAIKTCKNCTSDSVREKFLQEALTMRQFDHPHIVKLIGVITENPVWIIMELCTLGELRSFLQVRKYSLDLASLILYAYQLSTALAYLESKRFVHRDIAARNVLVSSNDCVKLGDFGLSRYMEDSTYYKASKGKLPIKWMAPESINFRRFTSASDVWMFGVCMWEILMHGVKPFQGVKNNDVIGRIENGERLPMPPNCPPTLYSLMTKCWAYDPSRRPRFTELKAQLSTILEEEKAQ
T10 sequence (P04049 whole entry): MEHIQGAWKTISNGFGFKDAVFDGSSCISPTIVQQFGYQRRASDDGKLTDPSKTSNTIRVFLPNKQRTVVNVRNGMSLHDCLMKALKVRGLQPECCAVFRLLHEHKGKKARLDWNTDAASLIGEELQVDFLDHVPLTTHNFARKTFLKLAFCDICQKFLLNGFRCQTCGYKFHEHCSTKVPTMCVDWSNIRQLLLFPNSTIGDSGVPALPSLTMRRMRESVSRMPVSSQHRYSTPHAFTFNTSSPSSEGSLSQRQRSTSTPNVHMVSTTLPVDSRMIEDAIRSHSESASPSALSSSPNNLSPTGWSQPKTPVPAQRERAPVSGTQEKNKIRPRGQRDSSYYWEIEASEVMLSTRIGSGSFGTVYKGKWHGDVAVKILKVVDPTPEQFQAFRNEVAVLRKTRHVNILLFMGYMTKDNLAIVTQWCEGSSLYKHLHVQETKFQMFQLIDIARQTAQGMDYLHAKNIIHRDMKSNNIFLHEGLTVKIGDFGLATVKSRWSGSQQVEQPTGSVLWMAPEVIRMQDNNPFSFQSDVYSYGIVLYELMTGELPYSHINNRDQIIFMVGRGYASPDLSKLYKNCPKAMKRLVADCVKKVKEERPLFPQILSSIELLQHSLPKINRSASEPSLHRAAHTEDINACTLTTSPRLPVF
T1 sequence (P11362 458-765 C488A/C584S): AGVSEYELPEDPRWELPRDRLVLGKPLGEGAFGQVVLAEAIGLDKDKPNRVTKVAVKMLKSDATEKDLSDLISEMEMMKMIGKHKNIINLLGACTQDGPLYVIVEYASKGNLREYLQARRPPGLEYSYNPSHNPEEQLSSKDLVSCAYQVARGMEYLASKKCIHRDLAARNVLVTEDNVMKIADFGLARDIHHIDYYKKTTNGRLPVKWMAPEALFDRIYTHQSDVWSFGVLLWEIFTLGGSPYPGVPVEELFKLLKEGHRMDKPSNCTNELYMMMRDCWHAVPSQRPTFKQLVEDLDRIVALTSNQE
Sequence of Brk (Q13882 whole entry): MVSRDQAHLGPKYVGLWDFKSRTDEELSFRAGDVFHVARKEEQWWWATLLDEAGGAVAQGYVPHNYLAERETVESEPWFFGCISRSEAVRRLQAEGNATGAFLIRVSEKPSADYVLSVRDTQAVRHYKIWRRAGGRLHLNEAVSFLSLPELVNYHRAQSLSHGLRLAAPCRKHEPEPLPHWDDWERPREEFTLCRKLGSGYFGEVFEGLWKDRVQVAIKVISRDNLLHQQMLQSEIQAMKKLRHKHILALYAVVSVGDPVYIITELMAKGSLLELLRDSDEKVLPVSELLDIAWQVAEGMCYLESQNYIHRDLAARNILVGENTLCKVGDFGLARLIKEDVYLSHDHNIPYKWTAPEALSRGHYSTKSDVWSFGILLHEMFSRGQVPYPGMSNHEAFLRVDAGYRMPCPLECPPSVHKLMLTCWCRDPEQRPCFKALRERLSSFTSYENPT
Sequence of Csk (P41240 whole entry): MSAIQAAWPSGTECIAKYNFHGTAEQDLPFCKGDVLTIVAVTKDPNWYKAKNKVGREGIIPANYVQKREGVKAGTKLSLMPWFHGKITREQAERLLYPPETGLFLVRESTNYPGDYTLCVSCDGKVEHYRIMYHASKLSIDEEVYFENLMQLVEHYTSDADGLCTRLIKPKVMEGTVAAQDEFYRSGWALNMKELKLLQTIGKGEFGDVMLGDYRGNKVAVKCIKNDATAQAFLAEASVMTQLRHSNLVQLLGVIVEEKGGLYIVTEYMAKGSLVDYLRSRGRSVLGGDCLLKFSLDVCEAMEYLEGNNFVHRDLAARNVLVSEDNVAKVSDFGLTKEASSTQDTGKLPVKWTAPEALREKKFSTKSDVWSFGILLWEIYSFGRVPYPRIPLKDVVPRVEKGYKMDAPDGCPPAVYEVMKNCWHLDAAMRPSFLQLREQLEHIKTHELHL
T8 sequence (P12931 with tags, fused parts or gaps): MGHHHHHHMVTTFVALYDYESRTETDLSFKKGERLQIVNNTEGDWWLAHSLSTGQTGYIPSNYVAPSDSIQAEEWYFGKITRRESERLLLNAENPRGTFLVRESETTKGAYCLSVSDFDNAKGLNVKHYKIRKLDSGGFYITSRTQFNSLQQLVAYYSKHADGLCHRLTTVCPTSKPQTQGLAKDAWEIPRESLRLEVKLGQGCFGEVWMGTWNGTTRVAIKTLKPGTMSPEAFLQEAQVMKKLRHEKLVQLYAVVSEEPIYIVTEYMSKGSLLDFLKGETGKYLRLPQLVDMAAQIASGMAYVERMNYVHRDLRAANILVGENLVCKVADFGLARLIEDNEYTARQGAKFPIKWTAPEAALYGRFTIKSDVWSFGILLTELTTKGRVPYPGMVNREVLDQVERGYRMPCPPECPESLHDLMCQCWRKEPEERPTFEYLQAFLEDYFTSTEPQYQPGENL
T7 sequence (P07333 20-972): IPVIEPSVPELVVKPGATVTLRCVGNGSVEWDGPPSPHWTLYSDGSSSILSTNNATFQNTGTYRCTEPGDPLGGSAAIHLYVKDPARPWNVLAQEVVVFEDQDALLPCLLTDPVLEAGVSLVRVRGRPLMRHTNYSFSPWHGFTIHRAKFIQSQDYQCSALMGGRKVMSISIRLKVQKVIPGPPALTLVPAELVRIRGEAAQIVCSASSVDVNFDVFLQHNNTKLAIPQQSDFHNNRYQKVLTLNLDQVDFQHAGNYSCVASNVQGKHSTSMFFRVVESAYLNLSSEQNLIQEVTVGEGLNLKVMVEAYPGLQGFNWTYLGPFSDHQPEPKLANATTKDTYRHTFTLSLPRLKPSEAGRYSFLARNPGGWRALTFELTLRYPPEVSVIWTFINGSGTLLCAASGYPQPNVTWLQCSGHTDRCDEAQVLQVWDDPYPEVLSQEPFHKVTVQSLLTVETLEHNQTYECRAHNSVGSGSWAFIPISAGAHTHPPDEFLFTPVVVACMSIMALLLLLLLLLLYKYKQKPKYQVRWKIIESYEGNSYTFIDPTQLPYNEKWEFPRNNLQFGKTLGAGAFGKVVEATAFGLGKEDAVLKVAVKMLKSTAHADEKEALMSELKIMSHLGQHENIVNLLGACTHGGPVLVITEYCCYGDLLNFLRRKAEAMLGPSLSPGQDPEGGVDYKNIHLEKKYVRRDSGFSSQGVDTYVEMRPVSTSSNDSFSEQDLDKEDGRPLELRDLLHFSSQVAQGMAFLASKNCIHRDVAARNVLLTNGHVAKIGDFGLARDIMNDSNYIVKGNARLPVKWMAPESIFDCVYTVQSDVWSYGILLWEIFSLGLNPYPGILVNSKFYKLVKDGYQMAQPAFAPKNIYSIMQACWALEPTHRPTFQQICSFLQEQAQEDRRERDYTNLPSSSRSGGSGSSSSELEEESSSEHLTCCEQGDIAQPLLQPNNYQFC

O=C(O)/C=C/c1cccc(-c2cnc3[nH]cc(C(=O)c4cccc(Cl)c4Cl)c3c2)c1 [Compound P-0089]
≤ 10 µM: FGFR1 | Btk | Syk | Ret | B-Raf V600E | Jnk3 | Kdr

CCCS(=O)(=O)Nc1cccc(C(=O)c2c[nH]c3ncc(Br)cc23)c1F [Compound P-0955, Propane-1-sulfonic acid [3-(5-bromo-1H-pyrrolo[2,3-b]pyridine-3-carbonyl)-2-fluoro-phenyl]-amide]
not listed: Btk | Syk | Ret | Jnk3 | Kdr | Jnk1 | TEC
≤ 10 µM: all other assays above

CCCS(=O)(=O)Nc1ccc(F)c(C(=O)c2c[nH]c3ncc(-c4ccc(Cl)cc4)cc23)c1F [Compound P-0956, Propane-1-sulfonic acid {3-[5-(4-chloro-phenyl)-1H-pyrrolo[2,3-b]pyridine-3-carbonyl]-2,4-difluoro-phenyl}-amide]
≤ 10 µM: Frk | FGFR1 | Brk | Fms | Src | Kit | Fak | Csk | Jnk1 | Kdr

CCCS(=O)(=O)Nc1cccc(C(=O)c2c[nH]c3ncc(Cl)cc23)c1F [Compound P-1013, propane-1-sulfonic acid [3-(5-chloro-1H-pyrrolo[2,3-b]pyridine-3-carbonyl)-2-fluoro-phenyl]-amide]
not listed: FGFR1 | Btk | Syk | Ret | Jnk3 | Kdr | Jnk1 | TEC
≤ 10 µM: all other assays above

O=C(c1c(F)ccc(NS(=O)(=O)N2CCCCC2)c1F)c1c[nH]c2ncc(Cl)cc12 [Compound P-1020, Piperidine-1-sulfonic acid [3-(5-chloro-1H-pyrrolo[2,3-b]pyridine-3-carbonyl)-2,4-difluoro-phenyl]-amide]
not listed: Syk | Ret | Jnk3 | Kdr | Fms | Kit | Stk6 | Jnk1
≤ 10 µM: all other assays above
